This passage reports TGI and GI50 results from PubChem BioAssay (NCI).

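Where inhibition never reached the appropriate level, the endpoint shown equals the highest concentration tested. Otherwise, values were interpolated linearly from a five-concentration, 48-hour dose response in 96-well plates. Abbreviation: GI50, concentration required for 50% inhibition of growth. TGI: total growth inhibition.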

Test systems include UACC-257 melanoma; ACHN renal; HOP-92 NSCLC; SW-620 colon; 786-0 renal; KM12 colon; NCI/ADR-RES ovarian; NCI-H522 lung; A498 renal; NCI-H460 lung.
Common to all, as to test: NCI-60 cell line screen, 48 h

Take `C=C(C)[C@@H]1CCc2c(O)c(O)c(=O)cc(C)c2C1`: the TGI in the assay with UACC-257 melanoma was greater than 100 µM; in the assay on ACHN renal it was 14.1 µM; in the assay with HOP-92 NSCLC, 17 µM; in the assay with SW-620 colon it was greater than 100 µM; with 786-0 renal, greater than 100 µM; with KM12 colon, greater than 100 µM. Moreover, the TGI is 25.8 µM in the assay on NCI/ADR-RES ovarian, greater than 96.6 µM in the assay on NCI-H522 lung, greater than 62.3 µM in the assay on A498 renal and 3.54 µM with NCI-H460 lung.

For the molecule `COc1cc(C2c3cc4c(cc3OC(O)C2C)OCO4)cc(OC)c1OC` (stereo not given), the TGI is greater than 100 µM in the assay on UACC-257 melanoma; greater than 88.1 µM in the assay on ACHN renal; 7.53 µM with HOP-92 NSCLC; greater than 100 µM with SW-620 colon; greater than 100 µM with 786-0 renal; 27.2 µM with KM12 colon. Further, the TGI is 0.504 µM with NCI/ADR-RES ovarian, 0.713 µM in the assay with NCI-H522 lung, 50.2 µM in the assay on A498 renal and greater than 51.3 µM in the assay on NCI-H460 lung.

With `COc1ccc2nc(C)cc(Sc3nc4ccccc4s3)c2c1`, the GI50 was 4.25 µM in the assay on UACC-257 melanoma; 1.21 µM in the assay on ACHN renal; 0.475 µM in the assay on HOP-92 NSCLC; 1.51 µM in the assay with SW-620 colon; 0.562 µM in the assay with 786-0 renal; 1.9 µM in the assay on KM12 colon. The GI50 in the assay with NCI/ADR-RES ovarian was 1.43 µM; in the assay with NCI-H522 lung it was 1.31 µM; in the assay on A498 renal, 1.37 µM; with NCI-H460 lung it was 1.89 µM. The TGI in the assay on UACC-257 melanoma worked out at 25.5 µM; with ACHN renal, 5.77 µM; in the assay with HOP-92 NSCLC, 6.25 µM; with SW-620 colon it was 2.98 µM; with 786-0 renal it was 3.28 µM; in the assay on KM12 colon, 5.07 µM. The TGI in the assay with NCI/ADR-RES ovarian was 4.42 µM; in the assay on NCI-H522 lung, 3.15 µM; with A498 renal, 4.87 µM; in the assay on NCI-H460 lung it was 5.35 µM.

Regarding `CCN(CC)CCCNCc1cc(-c2ccccc2)nc2cc(Cl)ccc12`, the GI50 in the assay on UACC-257 melanoma is 2.12 µM; with ACHN renal, 3.74 µM; in the assay on HOP-92 NSCLC, 1.16 µM; with SW-620 colon it was 1.97 µM; in the assay with 786-0 renal, 2.41 µM; in the assay on KM12 colon, 2.09 µM. The GI50 in the assay on NCI/ADR-RES ovarian is 5 µM; with NCI-H522 lung, 4.96 µM; in the assay on A498 renal, 2.36 µM; with NCI-H460 lung, 3.41 µM. The TGI in the assay on UACC-257 melanoma is 5.11 µM; in the assay on ACHN renal, 14.2 µM; in the assay on HOP-92 NSCLC, 5.02 µM; in the assay on SW-620 colon it was 3.94 µM; in the assay on 786-0 renal, 8.77 µM; in the assay with KM12 colon, 4.82 µM. Besides, the TGI in the assay with NCI/ADR-RES ovarian was 19.7 µM; in the assay with NCI-H522 lung it was 17.2 µM; in the assay on A498 renal, 6.14 µM; in the assay on NCI-H460 lung, 11.2 µM.

As for `CN1CCN(Cc2ccc(NC(=O)c3[nH]ncc3Nc3ncnc4[nH]ccc34)cc2)CC1`, the GI50 in the assay with UACC-257 melanoma is 0.531 µM; in the assay with ACHN renal, 0.322 µM; with HOP-92 NSCLC it was 0.431 µM; in the assay on SW-620 colon, 0.381 µM; in the assay with 786-0 renal, 0.301 µM; in the assay with KM12 colon, 0.347 µM. Moreover, the GI50 is 7.16 µM in the assay with NCI/ADR-RES ovarian, 0.283 µM in the assay with NCI-H522 lung, 0.149 µM with A498 renal and 0.328 µM in the assay with NCI-H460 lung. Further, the TGI in the assay on UACC-257 melanoma came out at 17.8 µM; with ACHN renal, 10 µM; in the assay on HOP-92 NSCLC, 0.741 µM; in the assay on SW-620 colon it was 11.6 µM; with 786-0 renal, 2 µM; in the assay with KM12 colon, 10.9 µM. The TGI is greater than 100 µM in the assay on NCI/ADR-RES ovarian, 1.63 µM in the assay with NCI-H522 lung, 0.406 µM in the assay on A498 renal and 4.67 µM in the assay with NCI-H460 lung.

In the case of `Cc1nn(C)c2ncnc(N/N=C/c3cccc(O)c3O)c12`, the GI50 in the assay on UACC-257 melanoma was 1.38 µM; in the assay on ACHN renal it was 0.338 µM; with HOP-92 NSCLC, 0.747 µM; in the assay on SW-620 colon, 0.48 µM; in the assay on 786-0 renal, 1.22 µM; in the assay on KM12 colon, 0.392 µM. Moreover, the GI50 was 0.336 µM with NCI/ADR-RES ovarian, 0.41 µM with NCI-H522 lung, 2.97 µM in the assay with A498 renal and 0.431 µM with NCI-H460 lung. For the same molecule, the TGI in the assay on UACC-257 melanoma was greater than 37.1 µM; in the assay with ACHN renal, greater than 32.3 µM; with HOP-92 NSCLC, 13.8 µM; in the assay on SW-620 colon, greater than 100 µM; with 786-0 renal it was 11.7 µM; in the assay with KM12 colon, greater than 100 µM. In addition, the TGI is greater than 55.8 µM in the assay with NCI/ADR-RES ovarian, greater than 48.2 µM in the assay on NCI-H522 lung, 16.3 µM in the assay on A498 renal and greater than 39.7 µM with NCI-H460 lung.

On to `O=C1NC(=O)C(=Cc2cn(Cc3ccccc3)c3ccccc23)C(=O)N1`, for which the GI50 in the assay on UACC-257 melanoma was 7.07 µM; in the assay with ACHN renal it was 19.8 µM; with HOP-92 NSCLC, 1.5 µM; in the assay on SW-620 colon it was 12.1 µM; with 786-0 renal it was 17.1 µM; in the assay on KM12 colon, 15.9 µM. For the same molecule, the GI50 in the assay on NCI/ADR-RES ovarian is 18.4 µM; in the assay on NCI-H522 lung, 13.1 µM; with A498 renal, 0.125 µM; in the assay with NCI-H460 lung, 0.264 µM. For the same molecule, the TGI with UACC-257 melanoma was 35.1 µM; in the assay on ACHN renal, 53.9 µM; with HOP-92 NSCLC, 19.9 µM; in the assay with SW-620 colon, 28.9 µM; with 786-0 renal, 33 µM; in the assay with KM12 colon, 31.5 µM. Further, the TGI was found to be 50.3 µM in the assay with NCI/ADR-RES ovarian, 37.2 µM in the assay with NCI-H522 lung, 0.594 µM in the assay on A498 renal and 13.4 µM with NCI-H460 lung.
